From publication PMC9452538, “The antimicrobial peptide LI14 combats multidrug-resistant bacterial infections” (Communications Biology, 2022)
≈ marks a conversion by molar mass, not a printed value. Like-named read-outs stand apart in the source and are kept apart here.

Key:
[1] = system: P. aeruginosa PA14; experiment: microbe, parasite or virus in culture; type: cell-based, Pseudomonas aeruginosa; conditions: Pseudomonas aeruginosa
Method: (§1) An antimicrobial activity study was conducted on all peptides against a panel of laboratory bacteria, including ATCC source and clinical isolates with resistance determinants. According to CLSI2021 guidelines, we tested the minimum inhibitory concentrations (MICs) of peptides using standard broth micro-dilutions. Briefly, bacteria grown to exponential phase were diluted in 1:1000 to MHB, subsequently, equivalent amounts of bacterial suspension (1.5 × 10^6 CFUs/mL) were mixed with different concentrations of peptides in a sterilized 96-well microtiter plate (Corning).

[2] = system: MDR E. coli B2; experiment: Checkerboard assay with LI14; type: cell-based, Escherichia coli
Method: (§2) Through checkerboard assay using two-fold serially diluted drugs (8 × 8 matrix), we evaluated the synergistic effects of LI14 with different mechanisms of antibiotics. The absorbance of cultures at 600 nm was determined by a Microplate reader after 18 h of incubation with (1.5 × 10^6 CFUs/mL) bacterial suspension. The FIC index (FICI) was calculated by performing two biological replicates for each combination. The formula is as follows: FIC index = FICIa + FICIb = MICab/MICa + MICba/Mb. An FIC index of ≤0.5 indicates synergy.
(§3) a/bMICs of antibiotics in the absence or presence of ¼ MIC of LI14.
(§4) cDegree of antibiotics potentiation in the presence of ¼ MIC of LI14.
(§5) –, none of potentiation activity.

[3] = system: S. aureus G16 (RIF^R); experiment: MIC broth microdilution; type: cell-based, Staphylococcus aureus; conditions: Staphylococcus aureus
Method: as §1

[4] = system: S. aureus 215 (cfr + LZD^R); experiment: MIC broth microdilution; type: cell-based, Staphylococcus aureus; conditions: Staphylococcus aureus
Method: as §1

[5] = system: K. pneumoniae ATCC 700603; experiment: microbe, parasite or virus in culture; type: cell-based, Klebsiella pneumoniae; conditions: Klebsiella pneumoniae, ATCC700603; K. pneumoniae ATCC 700603; MHB, 16-18 h, 37 °C; read-out: MIC
Method: as §1

[6] = system: K. pneumoniae D120 (mcr-8); experiment: microbe, parasite or virus in culture; type: cell-based, Klebsiella pneumoniae; conditions: Klebsiella pneumoniae; K. pneumoniae D120 (mcr-8); MHB, 16-18 h, 37 °C; read-out: MIC
Method: as §1

[7] = system: A. baumannii C222 (tet(X6)); experiment: microbe, parasite or virus in culture; type: cell-based, Acinetobacter baumannii; conditions: Acinetobacter baumannii
Method: as §1

[8] = system: A. baumannii ATCC 19609; experiment: microbe, parasite or virus in culture; type: cell-based, Acinetobacter baumannii; conditions: Acinetobacter baumannii, ATCC19609; A. baumannii ATCC 19609; MHB, 16-18 h, 37 °C; read-out: MIC
Method: as §1

[9] = system: E. coli DH5α (PUC19-mcr-1); experiment: MIC broth microdilution; type: cell-based, Escherichia coli; conditions: Escherichia coli
Method: as §1

[10] = system: E. coli DH5α (PUC19); experiment: MIC broth microdilution; type: cell-based, Escherichia coli; conditions: Escherichia coli; engineered E. coli DH5α (PUC19); MHB, 16-18 h, 37 °C; read-out: MIC
Method: as §1

[11] = system: E. faecalis A4 (VRE, VanA); experiment: microbe, parasite or virus in culture; type: cell-based; conditions: Enterococcus faecalis
Method: as §1

[12] = system: E. faecalis 1F-1; experiment: microbe, parasite or virus in culture; type: cell-based; conditions: Enterococcus faecalis, 1F1; E. faecalis 1F-1; MHB, 16-18 h, 37 °C; read-out: MIC
Method: as §1

[13] = system: S. enteritidis ATCC 13076; experiment: microbe, parasite or virus in culture; type: cell-based; conditions: Salmonella enterica
Method: as §1

[14] = system: E. faecium 5F-10; experiment: microbe, parasite or virus in culture; type: cell-based, Enterococcus faecium; conditions: Enterococcus faecium, 5F10
Method: as §1

[15] = system: E. coli ATCC 25922; experiment: microbe, parasite or virus in culture; type: cell-based, Escherichia coli; conditions: Escherichia coli, ATCC25922
Procedure, shortened: (§6)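 Bacteria are grown to exponential phase, diluted 1:1000 in MHB, then combined at 1.5 × 10^6 CFUs/mL with different peptide concentrations. MICs follow standard CLSI2021 broth micro-dilution.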

[16] = system: E. coli B2 (blaNDM-5 + mcr-1); experiment: microbe, parasite or virus in culture; type: cell-based, Escherichia coli; conditions: Escherichia coli; E. coli B2 (blaNDM-5 + mcr-1); MHB, 16-18 h, 37 °C; read-out: MIC
Procedure, shortened: as §6

[17] = system: E. coli DH5α (PUC19-tet(X4)); experiment: MIC broth microdilution; type: cell-based; conditions: Escherichia coli
Method: as §1

[18] = system: MRSA 1530; experiment: microbe, parasite or virus in culture; type: cell-based, Staphylococcus aureus; conditions: Staphylococcus aureus; MRSA 1530; MHB, 16-18 h, 37 °C; read-out: MIC
Method: as §1

[19] = system: MRSA 1518; experiment: microbe, parasite or virus in culture; type: cell-based, Staphylococcus aureus; conditions: Staphylococcus aureus; MRSA 1518; MHB, 16-18 h, 37 °C; read-out: MIC
Method: as §1

[20] = system: P. cibarius HNCF44W (blaNDM-1 + tet(X6)); experiment: organism not typed; type: cell-based; conditions: P. cibarius HNCF44W (blaNDM-1 + tet(X6)); MHB, 16-18 h, 37 °C; read-out: MIC
Method: as §1

[21] = system: MRSA T144; experiment: microbe, parasite or virus in culture; type: cell-based, Staphylococcus aureus; conditions: Staphylococcus aureus; MRSA T144; MHB, 16-18 h, 37 °C; read-out: MIC
Procedure, shortened: as §6

[22] = system: S. aureus ATCC 29213; experiment: microbe, parasite or virus in culture; type: cell-based, Staphylococcus aureus; conditions: Staphylococcus aureus, ATCC29213
Procedure, shortened: as §6

[23] = system: E. coli B3-1 (tet(X4)); experiment: microbe, parasite or virus in culture; type: cell-based, Escherichia coli; conditions: Escherichia coli; E. coli B3-1 (tet(X4)); MHB, 16-18 h, 37 °C; read-out: MIC
Method: as §1

[24] = system: E. coli G6 (blaNDM-5); experiment: microbe, parasite or virus in culture; type: cell-based, Escherichia coli; conditions: Escherichia coli; E. coli G6 (blaNDM-5); MHB, 16-18 h, 37 °C; read-out: MIC
Method: as §1

[25] = system: E. coli CP131 (mcr-3); experiment: microbe, parasite or virus in culture; type: cell-based, Escherichia coli; conditions: Escherichia coli
Method: as §1

[26] = system: E. coli G92 (mcr-1); experiment: microbe, parasite or virus in culture; type: cell-based, Escherichia coli; conditions: Escherichia coli
Method: as §1

[27] = system: E. coli C3 (blaNDM-1); experiment: microbe, parasite or virus in culture; type: cell-based, Escherichia coli; conditions: Escherichia coli; E. coli C3 (blaNDM-1); MHB, 16-18 h, 37 °C; read-out: MIC
Method: as §1

[28] = system: E. coli 1F28 (tet(X4)); experiment: microbe, parasite or virus in culture; type: cell-based, Escherichia coli; conditions: Escherichia coli; E. coli 1F28 (tet(X4)); MHB, 16-18 h, 37 °C; read-out: MIC
Method: as §1

[29] = system: sensitive E. coli ATCC 25922; experiment: Checkerboard assay with LI14; type: cell-based, Escherichia coli
Method: as §2, §3, §4, §5

[30] = system: tigecycline-resistant E. coli B3-1; experiment: Checkerboard assay with LI14; type: cell-based, Escherichia coli
Method: as §2, §3, §4, §5

[31] = system: E. coli DH5α (PUC19-blaNDM-5); experiment: MIC broth microdilution; type: cell-based; conditions: Escherichia coli
Method: as §1

[32] = system: E. coli DH5α (PUC19-blaNDM-9); experiment: MIC broth microdilution; type: cell-based; conditions: Escherichia coli
Method: as §1

[33] = system: E. coli DH5α (PUC19-blaNDM-1); experiment: MIC broth microdilution; type: cell-based; conditions: Escherichia coli
Method: as §1

[34] = serum versus MHB broth medium; cited from earlier work
Source text: Amphiphilicity, ɑ-helicity and appropriate peptide chain length are key factors for AMP activity.

[35] = in the presence of ¼ MIC of LI14
[36] = antibiotic in combination with LI14, checkerboard

Compound | MIC [3] [µg/mL] | MIC [4] [µg/mL] | MIC [5] [µg/mL] | MIC [6] [µg/mL] | MIC [8] [µg/mL] | MIC [9] [µg/mL] | MIC [10] [µg/mL] | MIC [12] [µg/mL] | MIC [16] [µg/mL] | MIC [17] [µg/mL] | MIC [18] [µg/mL] | MIC [19] [µg/mL] | MIC [20] [µg/mL] | MIC [21] [µg/mL] | MIC [23] [µg/mL] | MIC [24] [µg/mL] | MIC [27] [µg/mL] | MIC [28] [µg/mL] | other results
C[C@@H](O)[C@H]1C(=O)N2C(C(=O)O)=C(S[C@@H]3CN[C@H](C(=O)N(C)C)C3)[C@H](C)[C@H]12 [Meropenem] | 2 (≈ 5.22 µM) | 1 (≈ 2.61 µM) | < 0.0625 | < 0.0625 | < 0.0625 | < 0.125 | < 0.125 | 8 (≈ 20.9 µM) | 32 | < 0.125 | 0.25 (≈ 0.652 µM) | 0.25 (≈ 0.652 µM) | > 16 | 1 (≈ 2.61 µM) | < 0.0625 | 64 (≈ 167 µM) | 8 (≈ 20.9 µM) | 0.25 (≈ 0.652 µM) | MIC ([1]; P. aeruginosa PA14, MHB, 16-18 h, 37 °C, read-out: MIC): 32 µg/mL (≈ 83.4 µM); FIC index ([2]; antibiotic in combination with LI14, checkerboard 8 × 8, 18 h, ≤0.5 = synergy): 2; MICa of antibiotic ([2]; in the absence of LI14): 32 µg/mL; MICb of antibiotic [2, 35]: 32 µg/mL; MIC [7]: < 0.125 µg/mL; MIC ([11]; E. faecalis A4 (VRE, VanA), MHB, 16-18 h, 37 °C, read-out: MIC): > 64 µg/mL; MIC ([13]; S. enteritidis ATCC 13076, MHB, 16-18 h, 37 °C, read-out: MIC): < 0.0625 µg/mL; MIC ([14]; E. faecium 5F-10, MHB, 16-18 h, 37 °C, read-out: MIC): 8 µg/mL (≈ 20.9 µM); MIC ([15]; E. coli ATCC 25922, MHB, 16-18 h, 37 °C, read-out: MIC): 0.03 µg/mL (≈ 0.0782 µM); MIC ([22]; S. aureus ATCC 29213, MHB, 16-18 h, 37 °C, read-out: MIC): < 0.0625 µg/mL; MIC [25]: < 0.125 µg/mL; MIC [26]: < 0.125 µg/mL
CN(C)c1cc(NC(=O)CNC(C)(C)C)c(O)c2c1C[C@H]1C[C@H]3[C@H](N(C)C)C(O)=C(C(N)=O)C(=O)[C@@]3(O)C(O)=C1C2=O [Tigecycline] | < 0.0625 | 0.25 (≈ 0.427 µM) | 0.5 (≈ 0.854 µM) | 0.25 (≈ 0.427 µM) | 0.25 (≈ 0.427 µM) | 1 (≈ 1.71 µM) | 1 (≈ 1.71 µM) | 16 (≈ 27.3 µM) | 2 | 64 (≈ 109 µM) | 1 (≈ 1.71 µM) | 0.25 (≈ 0.427 µM) | 64 | 0.25 (≈ 0.427 µM) | 32 (≈ 54.6 µM) | 2 (≈ 3.41 µM) | 2 (≈ 3.41 µM) | 16 (≈ 27.3 µM) | MIC ([1]; PA14): < 0.0625 µg/mL; FIC index [29, 36]: 0.5; MICa of antibiotic ([29]; in the absence of LI14): 0.063 µg/mL; MICb of antibiotic [29, 35]: 0.016 µg/mL; Potentiation [29, 35]: 4 fold; FIC index [30, 36]: 0.125; MICa of antibiotic ([30]; in the absence of LI14): 32 µg/mL; MICb of antibiotic [30, 35]: 2 µg/mL; Potentiation [30, 35]: 16 fold; MIC ([7]; A. baumannii C222 (tet(X6)), MHB, 16-18 h, 37 °C, read-out: MIC): 64 µg/mL (≈ 109 µM); MIC ([11]; VRE): < 0.0625 µg/mL; MIC [13]: 0.125 µg/mL (≈ 0.213 µM); MIC [14]: < 0.0625 µg/mL; MIC [15]: 0.125 µg/mL (≈ 0.213 µM); MIC [31]: 1 µg/mL (≈ 1.71 µM); MIC [32]: 1 µg/mL (≈ 1.71 µM); MIC [33]: 1 µg/mL (≈ 1.71 µM); MIC [22]: 0.125 µg/mL (≈ 0.213 µM); MIC ([25]; E. coli CP131 (mcr-3), MHB, 16-18 h, 37 °C, read-out: MIC): 2 µg/mL (≈ 3.41 µM); MIC ([26]; E. coli G92 (mcr-1), MHB, 16-18 h, 37 °C, read-out: MIC): 4 µg/mL (≈ 6.83 µM)
LL-37: human AMP LL-37, previously reported peptide antibiotic |  |  |  |  |  |  |  |  |  |  |  |  |  |  |  |  |  |  | Change of MIC value in serum [34]: greater than 128 fold
